We go through six molecules from PMC7350407, “Kinetic Modifications of C4 PEPC Are Qualitatively Convergent, but Larger in Panicum Than in Flaveria” (Frontiers in Plant Science, 2020).

Where two headings read alike, the source gives them in different places.

In general, kcat refers to the number of substrate molecules converted per active site and unit of time at saturation. What is called kcat/Km is the second-order rate constant that governs catalysis at low substrate concentration.

Data set [1] deals with T1, Panicum queenslandicum (C4) PEPC.
T1 construct: gene ppc-1P3; full-length, 962 codons, N-terminal His6 tag kept, E. coli BL21(DE3), cloned from leaf cDNA
Description: malate dehydrogenase-coupled NADH assay, secondary plot of kcat/Km(HCO3-) against PEP. In kind it is biochemical. Particulars: substrate constant at limiting bicarbonate, not inhibition; pH 8.0, 25 °C, 10 mM MgCl2. The text has this: malate dehydrogenase-coupled NADH assay, secondary plot of kcat/Km(HCO3-) against PEP on Panicum queenslandicum (C4) PEPC

The test system of data set [2] is T2, Panicum pygmaeum (C3) PEPC.
T2 construct: gene ppc-1P3; full-length, 969 codons, codon-optimised synthetic gene, N-terminal His6 tag kept, E. coli BL21(DE3)
Description: malate dehydrogenase-coupled NADH assay, […] nm, secondary plot. In kind it is biochemical. The settings on record: co-substrate bicarbonate; pH 8.0, 25 °C, 10 mM MgCl2; read-out: KmPEP.

Data set [3] concerns the target T3, Flaveria pringlei (C3) PEPC (Flaveria pringlei, UniProt Q01647).
T3 construct: gene PPCA1; full-length, 967 codons, N-terminal His6 tag kept (pET-1B His6 TEV LIC), E. coli BL21(DE3)
The data set is described as follows: malate dehydrogenase-coupled NADH assay, secondary plot of kcat/Km(HCO3-) against PEP. Particulars: substrate constant at limiting bicarbonate, not inhibition; pH 8.0, 25 °C, 10 mM MgCl2. In kind it is biochemical. The text has this:
malate dehydrogenase-coupled NADH assay, secondary plot of kcat/Km(HCO3-) against PEP on Flaveria pringlei (C3) PEPC

Data set [4] concerns the target T2, Panicum pygmaeum (C3) PEPC. The data set is described as above. In kind it is biochemical. Particulars: substrate constant at limiting bicarbonate, not inhibition; pH 8.0, 25 °C, 10 mM MgCl2. An excerpt:
malate dehydrogenase-coupled NADH assay, secondary plot of kcat/Km(HCO3-) against PEP on Panicum pygmaeum (C3) PEPC

Data set [5] concerns T1, Panicum queenslandicum (C4) PEPC. Description: malate dehydrogenase-coupled NADH assay, […] nm, secondary plot. It counts as biochemical. The settings on record: co-substrate bicarbonate; pH 8.0, 25 °C, 10 mM MgCl2; read-out: KmPEP.
Data set [6] concerns the target T4, Flaveria trinervia (C4) PEPC (Flaveria trinervia, UniProt P30694).
T4 construct: gene PPCA; full-length, 967 codons, N-terminal His6 tag kept (pET-1B His6 TEV LIC), E. coli BL21(DE3)
The data set is described as follows: malate dehydrogenase-coupled NADH assay, secondary plot of kcat/Km(HCO3-) against PEP. It counts as biochemical. The settings on record: substrate constant at limiting bicarbonate, not inhibition; pH 8.0, 25 °C, 10 mM MgCl2. The text has this:
malate dehydrogenase-coupled NADH assay, secondary plot of kcat/Km(HCO3-) against PEP on Flaveria trinervia (C4) PEPC

Data set [7] concerns T5, Panicum queenslandicum (C4) PEPC.
T5 construct: gene ppc-1P3
Particulars: read-out: KmHCO3-; co-substrate PEP; pH 8.0, 25 °C, 10 mM MgCl2.

For data set [8], the system named is T6, Panicum pygmaeum (C3) PEPC.
T6 construct: gene ppc-1P3
Particulars: read-out: KmHCO3-; co-substrate PEP; pH 8.0, 25 °C, 10 mM MgCl2.

The target in data set [9] is T4, Flaveria trinervia (C4) PEPC. Description: malate dehydrogenase-coupled NADH assay, […] nm. In kind it is biochemical.
Data set [10] concerns the target T2, Panicum pygmaeum (C3) PEPC. The data set is described as follows: malate dehydrogenase-coupled NADH assay, […] nm. The settings on record: pH 8.0, 25 °C, 10 mM MgCl2, 5 mM KHCO3, PEP varied. In kind it is biochemical.
Data set [11] concerns the target T3, Flaveria pringlei (C3) PEPC. The data set is described as follows: malate dehydrogenase-coupled NADH assay, […] nm. It counts as biochemical.
The target of data set [12] is T1, Panicum queenslandicum (C4) PEPC. The data set is described as follows: malate dehydrogenase-coupled NADH assay, […] nm. The settings on record: pH 8.0, 25 °C, 10 mM MgCl2, 5 mM KHCO3, PEP varied. It counts as biochemical.
Substrate in data set [13]: C=C(OP(=O)(O)O)C(=O)O
Description: purified protein. The settings on record: co-substrate bicarbonate, pH 8.0, 25 °C, 10 mM MgCl2. In kind it is biochemical, Flaveria trinervia.

Substrate in data set [14]: O=C(O)O
The data set is described as follows: purified protein. Particulars: co-substrate PEP, pH 8.0, 25 °C, 10 mM MgCl2.

Substrate in data set [15]: C=C(OP(=O)(O)O)C(=O)O
Description: purified protein. It counts as biochemical, Flaveria pringlei. The settings on record: co-substrate bicarbonate, pH 8.0, 25 °C, 10 mM MgCl2.

The mark [16] stands for this setting: mixed inhibitor, competitive constant (limiting PEP), read-out: KicMalate.
[17] abbreviates: competitive, read-out: KicAspartate.

For `C=C(OP(=O)(O)O)C(=O)O` [PEP], the “KiPEP” value in data set [1] is recorded as 4.39 ± 1.10 mM; in data set [3], 0.02 ± 0.01 mM; in data set [4], 0.05 ± 0.01 mM; in data set [6], 0.40 ± 0.13 mM. For the same molecule, the figures for the Km in data set [2] and in [5] were 170 ± 50 µM and 4170 ± 300 µM, respectively.

With `O=C(O)O` [bicarbonate], the Km in data set [7] amounted to 40 ± 20 µM; in data set [8], 120 ± 20 µM.

Turning to `O=C(O)C[C@H](O)C(=O)O` [malate], the Ki turned out to be 11 ± 1.55 mM in data set [9] (read-out: KicMalate), 0.52 ± 0.22 mM in data set [10] (setting [16]), 2.14 ± 0.62 mM in data set [11] (read-out: KicMalate) and 7.51 ± 1.17 mM in data set [12] (setting [16]).

With `N[C@@H](CC(=O)O)C(=O)O` [aspartate], the Ki in [9] (read-out: KicAspartate) was 40 ± 6.49 mM; in data set [10] (setting [17]), 2.27 ± 0.02 mM; in data set [11] (read-out: KicAspartate), 4.13 ± 0.6 mM; in data set [12] (setting [17]) it was 49.4 ± 7.86 mM.

B1: Flaveria trinervia (C4) PEPC (Flaveria trinervia) (protein)
chain: MANRNVEKLASIDAQLRLLVPGKVSEDDKLVEYDALLLDKFLDILQDLHGEDLKEAVQQCYELSAEYEGKHDPKKLEELGSLLTSLDTGDSIVIAKAFSHMLNLANLAEELQIAYRRRIKLKSGDFADEANATTESDIEETFKRLVHKLNKSPEEVFDALKNQTVELVLTAHPTQSVRRSLLQKHGRIRNCLAQLYAKDITPDDKQELDEALHREIQAAFRTDEIRRTPPTPQDEMRAGMSYFHETIWKGVPKFLRRVDTALKNIGINERFPYNAPLIQFSSWMGGDRDGNPRVTPEVTRDVCLLARMMTSNMYFSQIEDLMIEMSMWRCNSELRVRAEELYRTARKDVKHYIEFWKRIPPNQPYRVILGDVRDKLYNTRERSRHLLVDGKSDIPDEAVYTNVEQLLEPLELCYRSLCDCGDHVIADGSLLDFLRQVSTFGLSLVKLDIRQESDRHTEVLDAITQHLGIGSYREWSEEKRQEWLLAELSGKRPLIGPDLPKTEEVKDCLDTFKVLAELPSDCFGAYIISMATSTSDVLAVELLQREYHIKHPLRVVPLFEKLADLEAAPAAMTRLFSMDWYRNRIDGKQEVMIGYSDSGKDAGRFSAAWQLYKTQEQIVKIAKEFGVKLVIFHGRGGTVGRGGGPTHLALLSQPPDTINGSLRVTVQGEVIEQSFGEEHLCFRTLQRFCAATLEHGMNPPISPRPEWRELMDQMAVVATEEYRSVVFKEPRFVEYFRLATPELEFGRMNIGSRPSKRKPSGGIESLRAIPWIFSWTQTRFHLPVWLGFGAAFKHAIQKDSKNLQMLQEMYKTWPFFRVTIDLVEMVFAKGNPGIAALNDKLLVSEDLRPFGESLRANYEETKNYLLKIAGHKDLLEGDPYLKQGIRLRDPYITTLNVCQAYTLKRIRDPNYHVTLRPHISKEYAAEPSKPADELIHLNPTSEYAPGLEDTLILTMKGIAAGMQNTG
notes: full-length, 967 codons, N-terminal His6 tag kept (pET-1B His6 TEV LIC), E. coli BL21(DE3)
Consider B1, for which, in “purified protein [13]”, the Km was 600 ± 50 µM, the kcat turned out to be 47.99 ± 1.21 s⁻¹ and the kcat/Km was found to be 80000 ± 5400 M⁻¹ s⁻¹. Besides, in “purified protein [14]”, the Km was found to be 70 ± 10 µM, the kcat was 47.99 ± 1.21 s⁻¹ and the catalytic efficiency (kcat/Km) was found to be 690000 M⁻¹ s⁻¹.

B2: Flaveria pringlei (C3) PEPC (Flaveria pringlei) (protein)
chain: MANRNLEKLASIDAQLRLLVPGKVSEDDKLIEYDALLLDKFLDILQDLHGEDLKEAVQECYELSAEYEGKHDPKKLEELGSVLTSLDPGDSIVIAKAFSHMLNLANLAEEVQIAYRRRIKLKRGDFADEANATTESDIEETFKKLVLKLNKSPEEVFDALKNQTVDLVLTAHPTQSVRRSLLQKHGRIRNCLAQLYAKDITPDDKQELDEALHREIQAAFRTDEIRRTPPTPQDEMRAGMSYFHETIWKGVPKFLRRVDTALKNIGINERVPYNAPLIQFSSWMGGDRDGKHPRVTPEVTRDVCLLARMMASNMYFSQIEDLMFEMSMWRCNSELRVRAEELYRTARRDVKHYIEFWKQVPPTEPYRVILGDVRDKLYNTRERSRHLLAHGISDIPEEAVYTNVEQFLEPLELCYRSLCDCGDRVIADGSLLDFLRQVSTFGLSLVKLDIRQESDRHTDVLDAITQHLEIGSYREWSEEKRQEWLLAELSGKRPLFGSDLPKTEEVKDVLDTFNVLAELPSDCFGAYIISMATSPSDVLAVELLQRECHVKHPLRVVPLFEKLADLEAAPAAMARLFSIDWYRNRIDGKQEVMIGYSDSGKDAGRFSAAWQLYKAQEEIIKVAKEFGVKLVIFHGRGGTVGRGGGPTHLAILSQPPDTIHGSLRVTVQGEVIEQSFGEEHLCFRTLQRFCAATLEHGMNPPISPRPEWRELMDQMAVVATEEYRSIVFKEPRFVEYFRLATPELEYGRMNIGSRPSKRKPSGGIESLRAIPWIFAWTQTRFHLPVWLGFGAAFKHAIKKDSKNLQMLQEMYKTWPFFRVTIDLVEMVFAKGDPGIAALNDKLLVSEDLWPFGESLRANYEETKDYLLKIAGHRDLLEGDPYLKQRIRLRDSYITTLNVCQAYTLKRIRDPNYHVTLRPHISKEYAAEPSKPADELIHLNPTSEYAPGLEDTLILTMKGIAAGMQNTG
notes: as for B1
As for B2, in “purified protein [14]”, the Km came out at 100 ± 10 µM, the kcat stood at 52.65 ± 1.37 s⁻¹ and the kcat/Km was found to be 440000 M⁻¹ s⁻¹. Besides, in the data set “purified protein [15]”, the Km was found to be 60 ± 10 µM, the kcat stood at 52.65 ± 1.37 s⁻¹ and the kcat/Km amounted to 940000 ± 84900 M⁻¹ s⁻¹.
